Assays:
[1] = tested on: CHO-K1-ATCC cells; experiment: Selectivity check: Ca2+ signal (Flipr) in wild type CHO-K1-ATCC cells; type: cell-based; settings: for dF/F (Fmax−Fbasal)/Fbasal, CHO-K1-ATCC, np: not primed
Method: (§1) Twenty-four hours before the experiment, the cells are havested, counted and seeded in 384-well plates at 10000 cells per wells and put at 37° C./5% CO2. The day of the experiment, the injection plates containing the compounds are prepared as described in the following table:
(§2) The cells are loaded with 2 μM Fluo-4 in HBSS/Hepes buffer. After one hour incubation at 37° C./5% CO2, the cells are washed with HBSS/Hepes containing 2.5 mM probenecid (2 wash cycles+volume adjustment are performed). Plates that will be primed with ATP are adjusted to 20 μl final volume and plates that will directly receive the compounds are adjusted to 40 μl final volume. Four assay plates are primed with 20 μl ATP at 20 μM initial (10 μM final concentration) and are incubated at room temperature for 30 minutes. Compounds plates at 3 times the final concentration are then injected with the Flipr pipettor on both primed and not primed plates. The Flipr laser is setup on 0.6 watt, the exposure length at 0.4 sec. […] A 10 seconds baseline is recorded prior compounds injection. After the injection, the signal is recorded every second for one minute. Then, signal decay is measured for 20 additional seconds. Two statistics are exported: Fbasal and Fmax. For each well, a dF/F value is expressed with the following formula: (Fmax−Fbasal)/Fbasal is the basal fluorescence prior compound injection and Fmax is the peak value of the kinetic.
(§3) These compounds are also tested against wild type cells and other transfected cells in order to check the selectivity.

[2] = target: T1, orphan receptor Singlet_413 (Homo sapiens, UniProt Q8TDS5); experiment: Ligand fishing: transient Ca2+ signal (Flipr384, Fluo-4) in CHO-K1-CRE cells stably transfected with Singlet_413; type: cell-based; settings: not primed
T1 construct: expressed in transfected cells
Method: as §1, §2

[3] = tested on: CHO-K1 (CHO-CRE) cells; experiment: Selectivity check: Ca2+ signal (Flipr) in CHO-CRE CHO-K1 cells without receptor; type: cell-based; settings: not primed
Method: as §1, §2, §3

[4] = tested on: Contig 88:1; experiment: Selectivity check: Ca2+ signal (Flipr) in CHO-CRE cells transfected with Contig 88:1; type: cell-based, human; settings: not primed
Method: as §1, §2, §3

T1 sequence (Q8TDS5 whole entry): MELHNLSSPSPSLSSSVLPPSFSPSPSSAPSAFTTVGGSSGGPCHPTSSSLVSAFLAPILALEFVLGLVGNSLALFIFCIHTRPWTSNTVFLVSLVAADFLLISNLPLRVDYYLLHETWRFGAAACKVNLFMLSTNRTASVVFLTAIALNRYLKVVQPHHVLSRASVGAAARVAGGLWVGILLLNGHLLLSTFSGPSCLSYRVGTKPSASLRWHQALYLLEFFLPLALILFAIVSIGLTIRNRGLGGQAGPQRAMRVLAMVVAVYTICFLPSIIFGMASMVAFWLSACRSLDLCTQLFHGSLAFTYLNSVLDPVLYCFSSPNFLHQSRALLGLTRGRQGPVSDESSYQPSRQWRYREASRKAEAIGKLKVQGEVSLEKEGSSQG

Row | SMILES | dF/F (Fmax−Fbasal)/Fbasal, CHO-CRE Singlet_413, np [2] | dF/F (Fmax−Fbasal)/Fbasal, CHO-K1-ATCC, np [1] | dF/F (Fmax−Fbasal)/Fbasal, CHO-CRE CHO-K1, np [3] | dF/F (Fmax−Fbasal)/Fbasal, CHO-CRE Contig 88:1, np [4] | activity (Ca2+ signal) on the non-transfected cells ([1]; non-transfected cells)
1 | CCCCC/C=C\C/C=C\C/C=C\C=C\[C@@H](O)CCCC(=O)O [Cpd 1, 5(S)-HETE] | 0.01 | 0.02 | −0.02 | 0.00 | 
2 | CCCCC/C=C\C=C\[C@@H](O)C/C=C\C/C=C\CCCC(=O)O [Cpd 3, 11(S)-HETE] | 0.00 | −0.04 | −0.03 | 0.00 | 
3 | CCCCC/C=C\C/C=C\C/C=C\C=C\[C@H](CCCC(=O)O)OO [Cpd 6, 5(S)-HPETE] | 0.01 | 0.03 | −0.01 | 0.00 | 
4 | CCCCC/C=C\C[C@@H]1O[C@H]1C(O)/C=C\C/C=C\CCCC(=O)O (stereo partly shown) [Cpd 7, HEPOXILIN B3] | 0.02 | 0.01 | −0.01 | 0.00 | 
5 | CCCCC/C=C\C/C=C\C/C=C\C=C\C(=O)CCCC(=O)O [Cpd 10, 5-KETOEICOSATETRAENOIC ACID] | 0.01 | 0.04 | −0.05 | 0.00 | not active
6 | CCCCC/C=C\C/C=C\C/C=C\C/C=C\CCCC(=O)O [Cpd 13, ARACHIDONIC ACID (20:4 n-6)] | 0.03 | 0.01 | −0.05 | 0.02 | 
7 | CCCCC/C=C\C/C=C\C/C=C\C/C=C\CCCC(=O)OC(CO)CO [Cpd 14, 2-ARACHIDONOYLGLYCEROL] | 0.02 | 0.00 | −0.05 | 0.00 | 

Second part, led by results:

Row | dF/F (Fmax−Fbasal)/Fbasal, CHO-CRE Singlet_413, np [2] | SMILES | dF/F (Fmax−Fbasal)/Fbasal, CHO-K1-ATCC, np [1] | dF/F (Fmax−Fbasal)/Fbasal, CHO-CRE CHO-K1, np [3] | dF/F (Fmax−Fbasal)/Fbasal, CHO-CRE Contig 88:1, np [4] | activity (Ca2+ signal) on the non-transfected cells ([1]; non-transfected cells)
8 | 0.01 | CCCCC/C=C\C/C=C\C/C=C\C=C\[C@@H](O)CCCC(=O)O (racemic) [Cpd 2, (±)5-HETE] | 0.02 | −0.05 | 0.01 | 
9 | 0.03 | CCCCCCCC/C=C\C/C=C\C=C\C(O)CCCC(=O)O (racemic) [Cpd 4, (±)5-HETrE] | 0.01 | −0.01 | 0.01 | 
10 | 0.03 | CC/C=C\C/C=C\C/C=C\C/C=C\C=C\C(O)CCCC(=O)O (racemic) [Cpd 5, (±)5-HEPE] | 0.03 | −0.04 | 0.01 | 
11 | 0.01 | CCCCC/C=C\C[C@@H](O)/C=C/C=C/C=C/[C@@H](O)CCCC(=O)O (relative stereo) [Cpd 8, 5(S), 12(R)-DIHETE all trans] | 0.02 | −0.04 | 0.01 | 
12 | 0.02 | CCCCC/C=C\CC1OC1C/C=C\C/C=C\CCCC(=O)O (stereo not shown) [Cpd 9, 11,12-EPOXYEICOSATRIENOIC ACID] | 0.00 | −0.02 | 0.02 | 
13 | −0.01 | CCCCC/C=C\C/C=C\C/C=C\C/C=C\CCCC(=O)OC(CO)COC(=O)CCCCCCCCCCCCCCCCC (stereo not shown) [Cpd 11, 1-STEAROYL-2-ARACHIDONOYL-GLYCEROL] | 0.01 | −0.05 | −0.01 | 
14 | 0.05 | CC/C=C\C/C=C\C/C=C\C/C=C\C/C=C\CCCC(=O)O [Cpd 12, EICOSAPENTAENOIC ACID (20:5 n-3)] | 0.02 | −0.04 | 0.03 | 
15 | 0.11 | OCCN(CCO)c1nc(N2CCCCC2)c2nc(N(CCO)CCO)nc(N3CCCCC3)c2n1 [Cpd 15, Dipyridamole] | 0.38 | −0.04 | 0.39 | 

Reference: patent publication US20040175789A1, “G protein coupled receptors and dna sequences thereof” (priority 2003, published 2004)
